Experiment [1] relates to S. aureus ATCC 25923. Kind of experiment: Oxacillin MIC reduction (adjuvant) microdilution assay. The format is cell-based, Staphylococcus aureus. The note with it: for Activity Gain [A]: MIC(OXA)/MIC(OXA+Cpd), compound 0.5 mM, adjuvant activity if A ≥ 4. Here is the method:
(§1) Since the lack of direct antibacterial activity of the obtained azetidinones was observed, all isomers trans and cis were investigated on their “adjuvant” properties, i.e., an ability to enhance the effectiveness of antibiotics against S. aureus strains. Thus, the compounds were tested in combination with the known β-lactam antibiotic, oxacillin, in the microdilution assays. The ability of the tested azetidinones to reduce minimum inhibitory concentration (MIC) of oxacillin against both, the referenced and the resistant S. aureus strains, was assessed.
(§2) The in-vitro antibacterial property and the capacity of tested compounds to increase the efficacy of antibiotics were evaluated in two Staphylococcus aureus strains, i.e., the reference clonal complex 5 (CC5) methicillin-susceptible (MSSA) strain ATCC 25923, and the methicillin-resistant (MRSA) extensively drug-resistant (XDR) clinical isolate HEMSA-5 [46].
(§3) In order to assess the increase of antibiotic efficacy, the assays were conducted by determining if/to what extent the investigated compounds reduce MICs of oxacillin by means of a serial dilution broth microplate method, in accordance with the CLSI requirements. The concentrations of compounds used in the MICs reduction assay were no greater than 1/4 of their respective MICs to ensure that cell viability was not affected by the intrinsic antibacterial activity of the molecules. Serial two-fold dilutions of oxacillin (Sigma-Aldrich; St. Louis, MI, USA, cat. no. 28221), were prepared in […] of the Mueller–Hinton broth (Merck; Darmstadt, Germany, cat. no. 1102930500). Suitable concentrations of the compounds (total volume […]) were then added. Bacterial suspensions were diluted to OD ¼ 0.5. The resulting suspensions were then diluted 1:100 and added in the volume of […] into the oxacillin serial dilutions with the compounds. The results were read after 20-h incubation at 37 °C.
(§4) The ability of compounds to improve antibiotic efficacy was expressed as the activity gain [A] parameter calculated according to the formula given in Figure 10.
(§5) Figure 10 Activity gain. MICAnt corresponds to the MIC of oxacillin in the absence of a compound tested and MICAnt + Comp refers to the MIC of oxacillin paired with a compound tested.

Experiment [2] deals with MRSA HEMSA 5. Described as above. The format is cell-based, Staphylococcus aureus. The note with it: for Activity Gain [A]: MIC(OXA)/MIC(OXA+Cpd), compound 0.5 mM, adjuvant activity if A ≥ 4. Here is the method:
as §1, §2, §3, §4, §5

Experiment [3] relates to DND-41 (acute lymphoblastic leukemia). Kind of experiment: Cytostatic activity (cell proliferation). The format is cell-based. The procedure: (§6) The 50% cytostatic inhibitory concentration (IC50) causing a 50% decrease in cell proliferation was determined for all obtained compounds toward 9 cancerous cell lines, i.e.,: Capan-1 (pancreatic adenocarcinoma), Hap1 (chronic myeloid leukemia), HCT-116 (colorectal carcinoma), NCI-H460 (lung carcinoma), DND-41 (acute lymphoblastic leukemia), HL-60 (acute myeloid leukemia), K-562 (chronic myeloid leukemia), MM.1S (multiple myeloma), Z-138 non-Hodgkin lymphoma), as well as normal retina (non-cancerous) cells (hTERT RPE-1). Docetaxel, etoposide and stauroporine were used as the reference compounds.
(§7) All assays were performed in 96-well microtiter plates. To each well was added (5–7.5) × 10^4 tumor cells and a given amount of the tested compound. The cells were allowed to proliferate at 37 °C in a humidified, CO2-controlled atmosphere. At the end of the incubation period, the cells were counted in a Coulter counter. The IC50 (50% inhibitory concentration) was defined as the concentration of the compound that inhibited cell proliferation by 50%.

For experiment [4], the system named is HCT-116 (colorectal carcinoma). Kind of experiment: Cytostatic activity (cell proliferation). The format is cell-based. Here is the method: as §6, §7
Experiment [5] has as its system hTERT RPE-1 normal retina (non-cancerous) cells. Kind of experiment: Cytostatic activity (cell proliferation). The format is cell-based. The procedure:
as §6, §7

The subject of experiment [6] is Hap1 (chronic myeloid leukemia). Kind of experiment: Cytostatic activity (cell proliferation). The format is cell-based. Here is the method: as §6, §7
In experiment [7] the test system is NCI-H460 (lung carcinoma). Kind of experiment: Cytostatic activity (cell proliferation). The format is cell-based. The procedure:
as §6, §7

For experiment [8], the system named is Capan-1 (pancreatic adenocarcinoma). Kind of experiment: Cytostatic activity (cell proliferation). The format is cell-based. The procedure: The 50% cytostatic inhibitory concentration (IC50) causing a 50% decrease in cell proliferation was determined for all obtained compounds toward 9 cancerous cell lines, i.e.,: Capan-1 (pancreatic adenocarcinoma), Hap1 (chronic myeloid leukemia), HCT-116 (colorectal carcinoma), NCI-H460 (lung carcinoma), DND-41 (acute lymphoblastic leukemia), HL-60 (acute myeloid leukemia), K-562 (chronic myeloid leukemia), MM.1S (multiple myeloma), Z-138 non-Hodgkin lymphoma), as well as normal retina (non-cancerous) cells (hTERT RPE-1).
All assays were performed in 96-well microtiter plates. To each well was added (5–7.5) × 10^4 tumor cells and a given amount of the tested compound. The cells were allowed to proliferate at 37 °C in a humidified, CO2-controlled atmosphere. At the end of the incubation period, the cells were counted in a Coulter counter.

Where [9] appears, read: oxacillin MIC in presence of 0.5 mM compound.

The structures appear in SMILES notation. Where two headings read alike, the source gives them in different places.

For the compound `CCOP(=O)(OCC)[C@@H]1[C@H](c2ccccc2F)C(=O)N1C` (relative stereo) [cis-10b, cis-N-methyl-3-(2-fluorophenyl)-4-(diethoxyphosphoryl)azetidin-2-one], the results for the “Activity Gain [A]” value in experiment [1] and in experiment [2] were 0.5 and 1, respectively. Also, the half-maximal inhibitory concentration (IC50) (usually the concentration at which inhibition is half-maximal) in experiment [3] (DND41) is > 100 µM; in experiment [4] (Homo sapiens, HCT-116), > 100 µM; in experiment [5] (hTERT-RPE1), > 100 µM; in experiment [6] (Homo sapiens, HAP1) it was 14.5 µM; in experiment [7] (Homo sapiens, NCI-H460), 45.2 µM; in experiment [8] (Homo sapiens, CAPAN-1) it was 31.9 µM.
For the compound `CCOP(=O)(OCC)[C@@H]1[C@H](c2ccccc2)C(=O)N1Cc1ccccc1` (relative stereo) [cis-11a, cis-N-benzyl-3-phenyl-4-(diethoxyphosphoryl)azetidin-2-one], the “Activity Gain [A]” value in experiment [1] was 0.5; in experiment [2] it was 1–2. In addition, the half-maximal inhibitory concentration (IC50) in experiment [3] (DND41) is > 100 µM; in experiment [4] (Homo sapiens, HCT-116) it was 87.9 µM; in experiment [5] (hTERT-RPE1), > 100 µM; in experiment [6] (Homo sapiens, HAP1), > 100 µM; in experiment [7] (Homo sapiens, NCI-H460), 78.8 µM; in experiment [8] (Homo sapiens, CAPAN-1), 95.2 µM.
In the case of `CCOP(=O)(OCC)[C@@H]1[C@H](c2ccc(F)cc2F)C(=O)N1Cc1ccccc1` (relative stereo) [cis-11e, cis-N-benzyl-3-(2,4-difluorophenyl)-4-(diethoxyphosphoryl)azetidin-2-one], the “Activity Gain [A]” value turned out to be 0.5 in experiment [1] and 1 in experiment [2]. For the same compound, the IC50 in experiment [3] (DND41) was > 100 µM; in experiment [4] (Homo sapiens, HCT-116) it was > 100 µM; in experiment [5] (hTERT-RPE1) it was > 100 µM; in experiment [6] (Homo sapiens, HAP1), > 100 µM; in experiment [7] (Homo sapiens, NCI-H460), 43 µM; in experiment [8] (Homo sapiens, CAPAN-1), 48.9 µM.
Regarding `CCOP(=O)(OCC)[C@H]1[C@H](c2cccc(F)c2)C(=O)N1Cc1ccccc1` (relative stereo) [trans-11c, trans-N-benzyl-3-(3-fluorophenyl)-4-(diethoxyphosphoryl)azetidin-2-one], the “Activity Gain [A]” value in experiment [1] was <0.5; in experiment [2], 1. Further, the IC50 was > 100 µM in experiment [3] (DND41); 45.5 µM in experiment [4] (Homo sapiens, HCT-116); 45.9 µM in experiment [5] (hTERT-RPE1); 56.1 µM in experiment [6] (Homo sapiens, HAP1); 44.3 µM in experiment [7] (Homo sapiens, NCI-H460); 40.1 µM in experiment [8] (Homo sapiens, CAPAN-1).
In the case of `CC(=O)O[C@@]12CO[C@@H]1C[C@H](O)[C@@]1(C)C(=O)[C@H](O)C3=C(C)[C@@H](OC(=O)[C@H](O)[C@@H](NC(=O)OC(C)(C)C)c4ccccc4)C[C@@](O)([C@@H](OC(=O)c4ccccc4)[C@H]21)C3(C)C` [Docetaxel, reference compound], the 50% inhibitory concentration (IC50) in experiment [3] (DND41) is 1.63 µM; in experiment [4] (Homo sapiens, HCT-116), 0.25 µM; in experiment [5] (hTERT-RPE1), 25 µM; in experiment [6] (Homo sapiens, HAP1), 1.19 µM; in experiment [7] (Homo sapiens, NCI-H460), 0.89 µM; in experiment [8] (Homo sapiens, CAPAN-1), 0.95 µM.
Consider `CCOP(=O)(OCC)[C@H]1[C@H](c2ccc(F)cc2)C(=O)N1C` (relative stereo) [trans-10d, trans-N-methyl-3-(4-fluorophenyl)-4-(diethoxyphosphoryl)azetidin-2-one], for which the figures for the “Activity Gain [A]” value in experiment [1] and in experiment [2] were 0.5 and 1, respectively. For the same compound, the half-maximal inhibitory concentration (IC50) is > 100 µM in experiment [3] (DND41); > 100 µM in experiment [4] (Homo sapiens, HCT-116); > 100 µM in experiment [5] (hTERT-RPE1); 58.1 µM in experiment [6] (Homo sapiens, HAP1); 41.3 µM in experiment [7] (Homo sapiens, NCI-H460); 45.7 µM in experiment [8] (Homo sapiens, CAPAN-1).
On to `CCOP(=O)(OCC)[C@@H]1[C@H](c2ccc(F)c(C)c2)C(=O)N1C` (relative stereo) [cis-10f, cis-N-methyl-3-(4-fluoro-3-methylphenyl)-4-(diethoxyphosphoryl)azetidin-2-one], for which the “Activity Gain [A]” value in experiment [1] is reported as 0.5; in experiment [2], 1–2. The IC50 in experiment [3] (DND41) is > 100 µM; in experiment [4] (Homo sapiens, HCT-116) it was > 100 µM; in experiment [5] (hTERT-RPE1), > 100 µM; in experiment [6] (Homo sapiens, HAP1), 97.9 µM; in experiment [7] (Homo sapiens, NCI-H460), 87 µM; in experiment [8] (Homo sapiens, CAPAN-1), 61.4 µM.
With `CCOP(=O)(OCC)[C@H]1[C@H](c2ccccc2)C(=O)N1C` (relative stereo) [trans-10a, trans-N-methyl-3-phenyl-4-(diethoxyphosphoryl)azetidin-2-one], the “Activity Gain [A]” value in experiment [1] and in experiment [2] was 1 throughout. The “OXA+ Cpd MIC” value in experiment [1] (setting [9]) came to 0.5 µg/mL; in experiment [2] (setting [9]), 512 µg/mL. Further, the IC50 in experiment [3] was > 100 µM; in experiment [4] it was > 100 µM; in experiment [5], > 100 µM; in experiment [6] it was > 100 µM; in experiment [7], 54.6 µM; in experiment [8], 46.2 µM.
As for `CCOP(=O)(OCC)[C@H]1[C@H](c2ccc(F)c(C)c2)C(=O)N1C` (relative stereo) [trans-10f, trans-N-methyl-3-(4-fluoro-3-methylphenyl)-4-(diethoxyphosphoryl)azetidin-2-one], the “Activity Gain [A]” value came to 0.5 in experiment [1] and 1 in experiment [2]. Moreover, the IC50 in experiment [3] (DND41) is > 100 µM; in experiment [4] (Homo sapiens, HCT-116), > 100 µM; in experiment [5] (hTERT-RPE1), 90.2 µM; in experiment [6] (Homo sapiens, HAP1), 41.8 µM; in experiment [7] (Homo sapiens, NCI-H460), 59.7 µM; in experiment [8] (Homo sapiens, CAPAN-1), 47.7 µM.
Turning to `CCOP(=O)(OCC)[C@H]1[C@H](c2ccccc2F)C(=O)N1Cc1ccccc1` (relative stereo) [trans-11b, trans-N-benzyl-3-(2-fluorophenyl)-4-(diethoxyphosphoryl)azetidin-2-one], the “Activity Gain [A]” value in experiment [1] is reported as <0.5; in experiment [2], 1–2. Moreover, the IC50 in experiment [3] (DND41) is > 100 µM; in experiment [4] (Homo sapiens, HCT-116), > 100 µM; in experiment [5] (hTERT-RPE1), > 100 µM; in experiment [6] (Homo sapiens, HAP1) it was > 100 µM; in experiment [7] (Homo sapiens, NCI-H460) it was 56.7 µM; in experiment [8] (Homo sapiens, CAPAN-1), 51.9 µM.
Regarding `CN[C@@H]1C[C@H]2O[C@@](C)([C@@H]1OC)n1c3ccccc3c3c4c(c5c6ccccc6n2c5c31)C(=O)NC4` [Stauroporine, reference compound], the IC50 in experiment [3] is 21.5 µM; in experiment [4], 0.09 µM; in experiment [5], 0.25 µM; in experiment [6] it was 3.55 µM; in experiment [7] it was 11.5 µM.
For the compound `Cc1onc(-c2ccccc2)c1C(=O)N[C@@H]1C(=O)N2[C@@H]1SC(C)(C)[C@@H]2C(=O)O` [oxacillin, reference compound], the MIC (commonly the lowest concentration found to suppress growth) in experiment [1] (Staphylococcus aureus, ATCC25923, oxacillin alone, read-out: OXA MIC) amounted to 0.5 µg/mL; in experiment [2] (Staphylococcus aureus, oxacillin alone, read-out: OXA MIC), 512 µg/mL.
As for `COc1cc([C@@H]2c3cc4c(cc3[C@@H](O[C@@H]3O[C@@H]5CO[C@@H](C)O[C@H]5[C@H](O)[C@H]3O)[C@H]3COC(=O)[C@H]23)OCO4)cc(OC)c1O` [Etoposide, reference compound], the IC50 in experiment [3] (DND41) was 0.06 µM; in experiment [5] (hTERT-RPE1), 0.23 µM; in experiment [6] (Homo sapiens, HAP1), 0.04 µM; in experiment [7] (Homo sapiens, NCI-H460), 1.35 µM; in experiment [8] (Homo sapiens, CAPAN-1) it was 0.15 µM.

The values above are taken from paper PMC8348901, “Novel N-Substituted 3-Aryl-4-(diethoxyphosphoryl)azetidin-2-ones as Antibiotic Enhancers and Antiviral Agents in Search for a Successful Treatment of Complex Infections” (International Journal of Molecular Sciences, 2021).
